Values quoted from earlier work, collected in patent US11285184B2, “Cannabidiol alkaline composition” (CHIROSYN DISCOVERY TECHNOLOGIES INC., priority 2018, dated 2022).

Details: CBD dissolved in sulfuric acid/acetic acid

Structure (SMILES): C=C(C)[C@@H]1CCC(C)=C[C@H]1c1c(O)cc(CCCCC)cc1O [CBD, 2-[1R-3-methyl-6R-(1-methylethenyl)-2-cyclohexen-1-yl]-5-pentyl-1,3-benzenediol]
- Δ-8-THC formed from CBD: 2%
- Δ-9-THC formed from CBD: 52%
